The values that follow are results of earlier work, collected in article PMC6151961 (Journal of Enzyme Inhibition and Medicinal Chemistry, 2018).

For the data set, the target named is CA IX (Homo sapiens, UniProt Q16790). The conditions noted are these: cited from earlier work.
[1] abbreviates: experimental pKi towards CA IX, library compounds, ref ChEMB database (ID A), BindingDB (ID B).
Where [2] appears, read: observed Ki towards CA IX, library compounds, ref ChEMB database (ID A), BindingDB (ID B), read-out: Ki.
Where [3] appears, read: observed Ki of library compounds (IDs A..., B...), ref ChEMBL, BindingDB, read-out: Ki.
Setting [4] is: library compounds (IDs A…, B…), values equal log10 of Ki in nM, ref ChEMBL and BindingDB.
The mark [5] stands for this setting: observed Ki of library compounds (IDs A…, B…), ref ChEMBL and BindingDB, read-out: Ki.
[6] abbreviates: library compounds (IDs A…, B…), observed Ki towards CA IX, ref ChEMBL and BindingDB, read-out: Ki.
The mark [7] stands for this setting: library compounds (IDs A…, B…) of Table S4, ref ChEMBL and BindingDB, read-out: Ki.

SMILES strings stand for the structures. Read-outs that look alike come from different tables or passages of the source.

The term Ki denotes a measure of affinity in units of concentration, obtained from inhibition or displacement. With `CC(=O)OC[C@@H]1O[C@@H](SCc2nnn(-c3ccc(S(N)(=O)=O)cc3)c2I)[C@H](OC(C)=O)[C@@H](OC(C)=O)[C@@H]1OC(C)=O` [B0581], the “log10 of Ki in nM” value under setting [1] is reported as 1.978. Moreover, under setting [2], the Ki was 95 nM.

`CCOc1ccc(S(=O)(=O)NCCO)cc1-c1nnc2c(n1)c(C)nn2-c1ccc(C)cc1` [B0321]: the Ki under setting [3] is 25 nM.

Consider `CC1=CC(c2ccccc2)C=C(C)N1CCc1ccc(S(N)(=O)=O)cc1` [B0111], for which the “log10 of Ki in nM” value under setting [4] is on record as 0.778. The Ki under setting [5] was 6 nM.

For `NS(=O)(=O)c1ccc(-c2cn([C@H]3O[C@H](CO)[C@@H](O)[C@@H](O)[C@H]3O)nn2)cc1` [B0619], the “log10 of Ki in nM” value is listed as 2.079. For the same molecule, the Ki (read-out: Ki) is 120 nM.

For `NS(=O)(=O)c1ccc(NC2=NC(=O)/C(=C\c3coc4ccccc4c3=O)S2)cc1` [B0247], the Ki under setting [6] is 14 nM. The “log10 of Ki in nM” value under setting [4] is given as 1.146.

On to `COc1ccc(-c2nn(-c3ccc(S(N)(=O)=O)cc3)cc2/C=N/Nc2nc(-c3cc4cc(Br)ccc4oc3=O)cs2)cc1` [B0286], for which the Ki under setting [6] is 20 nM. Moreover, under setting [4], the “log10 of Ki in nM” value is recorded as 1.301.

For `CC[C@@H](Sc1nc(-c2cccc(OC)c2)c(C#N)c(=O)[nH]1)C(=O)Nc1ccc(S(N)(=O)=O)cc1` [A0953], the “log10 of Ki in nM” value under setting [4] is recorded as 1.380. Further, under setting [5], the Ki is 24 nM.

For the molecule `O=C(Cc1ccccc1Br)Oc1ccc2c(c1)OS(=O)(=O)CC2` [A2452], the “log10 of Ki in nM” value under setting [1] is 4.000. In addition, the Ki under setting [2] is 10000 nM.

Regarding `NS(=O)(=O)c1ccc(-c2cn([C@@H]3O[C@@H](CO)[C@H](O)[C@@H]3O)nn2)cc1` [B0623], the “log10 of Ki in nM” value is 2.083. The Ki (read-out: Ki) is 121 nM.

On to `CC(=O)OC[C@@H]1O[C@H](NS(=O)(=O)NO)C=C[C@H]1OC(C)=O` [B0526], for which the “log10 of Ki in nM” value is reported as 1.898. Moreover, the Ki (read-out: Ki) was 79 nM.

As to `COc1ccc2c(c1)CCN(S(N)(=O)=O)[C@H]2c1ccc(N)cc1` [A0718], the Ki under setting [7] was 12 nM. For the same molecule, the “log10 of Ki in nM” value under setting [4] is given as 1.079.

Regarding `Cc1cc(C)c2nc(S)n(-c3ccc(S(N)(=O)=O)cc3)c(=O)c2c1` [B0272], the “log10 of Ki in nM” value (library compounds (IDs A..., B...), values equal log10 of Ki in nM, ref ChEMBL, BindingDB) is on record as 1.255. In addition, the Ki under setting [3] is 18 nM.

For the molecule `CC1C=C(C(C)C)N(Cc2ccc(S(N)(=O)=O)cc2)C(C(C)C)=C1` [B0461], under setting [6], the Ki is 54 nM. The “log10 of Ki in nM” value under setting [4] is listed as 1.732.

As to `CC1(C)O[C@H]2[C@H](CO[C@]3(CNC(=S)Nc4ccc(S(N)(=O)=O)cc4)OC(C)(C)O[C@H]23)O1` [B0536], the “log10 of Ki in nM” value is 1.914. Also, the Ki (read-out: Ki) is 82 nM.

Turning to `CCCN(CCC)S(=O)(=O)c1ccc(C(=O)N[C@H](C)C(N)=O)cc1` [B0254, reference compound], the Ki (CA IX, library ligands, ref ChEMBL[43] and BindingDB[44], read-out: Ki) was 15 nM. For the setting “CA IX, observed value, equals log of Ki in nM, ref ChEMBL[43] and BindingDB[44]”, the “log10 of Ki in nM” value is on record as 1.176.

Regarding `NS(=O)(=O)c1ccc2c(c1)S(=O)(=O)C[C@H]2OCc1ccccc1` [A0131], the Ki under setting [7] is 2.8 nM. Moreover, under setting [4], the “log10 of Ki in nM” value is given as 0.447.

Turning to `CC1=CC(C)C=C(C)N1CCc1ccccc1C` [B0765], the “log10 of Ki in nM” value under setting [4] was 2.919. Also, under setting [5], the Ki is 830 nM.

`CC1(C)O[C@@H]2O[C@H]([C@@H]3COC(C)(C)O3)[C@@H](OS(N)(=O)=O)[C@@H]2O1` [B0417]: the “log10 of Ki in nM” value is recorded as 1.591. Also, the Ki (read-out: Ki) was 39 nM.

As to `NS(=O)(=O)c1ccc(-n2cc(CO[C@H]3O[C@H](CO)[C@H](O[C@H]4O[C@H](CO)[C@@H](O)[C@@H](O)[C@H]4O)[C@@H](O)[C@@H]3O)nn2)cc1` [B0542], the “log10 of Ki in nM” value is listed as 1.924. The Ki (read-out: Ki) was 84 nM.

Consider `COc1ccc2c(c1)CCN(S(N)(=O)=O)[C@H]2c1ccc(S(N)(=O)=O)cc1` [A0401], for which the “log10 of Ki in nM” value is given as 0.813. In addition, the Ki (read-out: Ki) is 6.5 nM.

Consider `CC1=C[C@H](c2ccccc2)C=C(c2ccccc2)N1c1ccc(S(=O)(=O)Nc2nnc(S(N)(=O)=O)s2)cc1` [B0314], for which the “log10 of Ki in nM” value under setting [4] is reported as 1.380. Under setting [5], the inhibition constant (Ki) was 24 nM.

Consider `CC1=CC(C)C=C(C)N1CCc1ccccc1-c1ccccc1` [B0751], for which, under setting [7], the Ki is 710 nM. Moreover, the “log10 of Ki in nM” value under setting [4] is 2.851.

Take `NS(=O)(=O)c1ccc(CCN2C(c3ccccc3)=CCC=C2c2ccccc2)cc1` [B0533]: under setting [1], the “log10 of Ki in nM” value is 1.908. Moreover, the Ki under setting [2] was 81 nM.

In the case of `NS(=O)(=O)c1ccc(CCNc2nc(N[C@@H](CO)C(=O)O)nc(N[C@H](CO)C(=O)O)n2)cc1` [B0192], the “log10 of Ki in nM” value is listed as 0.954. For the same molecule, the Ki (read-out: Ki) is 9 nM.

For the molecule `NS(=O)(=O)c1ccc(-n2cc(CS(=O)(=O)[C@@H]3O[C@@H](CO)[C@H](O)[C@@H](O)[C@H]3O)nn2)cc1` [B0162], the “log10 of Ki in nM” value is on record as 0.908. The Ki (read-out: Ki) is 8.1 nM.

For `NS(=O)(=O)c1ccc(-n2cc(/C=N/Nc3nc(-c4cc5cc(Br)ccc5oc4=O)cs3)c(-c3ccc(Cl)cc3)n2)cc1` [B0302], the “log10 of Ki in nM” value under setting [4] is on record as 1.362. Also, the Ki under setting [5] was 23 nM.

Take `NS(=O)(=O)c1ccc(CNC(=S)Nc2ccc(C3c4ccc(O)cc4Oc4cc(O)ccc43)c(C(=O)O)c2)cc1` [B0334]: the Ki under setting [6] was 26 nM. In addition, the “log10 of Ki in nM” value under setting [4] was 1.415.

Take `C[C@]12CC[C@H]3[C@@H]([C@H]1CCC2=O)[C@@H](O)C=C1C[C@@H](OS(N)(=O)=O)CC[C@]13C` [B0490]: the Ki was 65 nM and the “log10 of Ki in nM” value is reported as 1.813.

Regarding `NS(=O)(=O)c1ccc(N[C@H]2SC[C@H](c3ccc(F)cc3F)N2C2CCCCC2)cc1` [B0547], the “log10 of Ki in nM” value under setting [4] is on record as 1.934. Moreover, the inhibition constant (Ki) under setting [5] is 86 nM.

Regarding `CC/C(=N/Nc1ccc([N+](=O)[O-])cc1)Sc1cc(Cl)c(C)cc1S(N)(=O)=O` [A2453], under setting [6], the Ki was 10000 nM. Under setting [4], the “log10 of Ki in nM” value was 4.000.

For the molecule `COc1ccc2c(c1)CCN[C@H]2c1ccc(S(N)(=O)=O)cc1` [A0785], the “log10 of Ki in nM” value is given as 1.188. Where the note is “read-out: Ki”, the Ki is 15.4 nM.

Take `CC(=O)OC[C@@H]1O[C@@H](SCc2cn(-c3ccc(S(N)(=O)=O)cc3)nn2)[C@H](OC(C)=O)[C@@H](OC(C)=O)[C@@H]1OC(C)=O` [B0180]: the “log10 of Ki in nM” value was 0.934. Further, the Ki (read-out: Ki) was 8.6 nM.

Consider `CC(=O)N1N=C(c2ccc(C)cc2)C[C@H]1c1c(C)nn(-c2ccc(S(N)(=O)=O)cc2)c1Cl` [A1383], for which the Ki under setting [6] was 67.1 nM. Also, the “log10 of Ki in nM” value under setting [4] was 1.827.

Regarding `COc1cc(/C=C\C(=O)OCCCCO[N+](=O)[O-])ccc1OC(=O)c1ccc(S(N)(=O)=O)cc1` [B0225], the “log10 of Ki in nM” value was 1.041. Further, the Ki (read-out: Ki) is 11 nM.

`CC(=O)CN1C(=O)C=C(C)OS1(=O)=O` [A2477]: the Ki under setting [6] was 20000 nM. Besides, under setting [4], the “log10 of Ki in nM” value is on record as 4.301.

On to `COc1cc2c(cc1OC)[C@@H](c1ccc([N+](=O)[O-])cc1)N(S(N)(=O)=O)CC2` [B0740], for which the “log10 of Ki in nM” value under setting [4] is recorded as 2.681. For the same molecule, under setting [5], the Ki is 480 nM.

Consider `COc1ccc(/C=C\C(=O)C[C@H]2O[C@H](COC(C)=O)[C@@H](OC(C)=O)[C@@H](OC(C)=O)[C@@H]2OC(C)=O)cc1OC` [B0756], for which the Ki under setting [6] is 753 nM. For the same molecule, the “log10 of Ki in nM” value under setting [4] is recorded as 2.877.

For `CCCN(CCC)S(=O)(=O)c1ccc(C(=O)N[C@H](CO)C(N)=O)cc1` [B0020], the “log10 of Ki in nM” value was 0.415. The Ki (read-out: Ki) was 2.6 nM.

As to `Cc1ccc(-c2nn(-c3ccc(S(N)(=O)=O)cc3)cc2/C=N/Nc2nc(-c3cc4cc(Cl)ccc4oc3=O)cs2)cc1` [B0318], the “log10 of Ki in nM” value was 1.380. Moreover, the Ki (read-out: Ki) was 24 nM.
